Reference: paper PMC6155852, “Oral Administration of the Japanese Traditional Medicine Keishibukuryogan-ka-yokuinin Decreases Reactive Oxygen Metabolites in Rat Plasma: Identification of Chemical Constituents Contributing to Antioxidant Activity” (Molecules : A Journal of Synthetic Chemistry and Natural …, 2017)
Where “and” joins values, the source holds several entries; their conditions need not be identical. Identical values can stand only once. Like-named read-outs stand apart in the source and are kept apart here.

Legend:
[1] = Plasma pharmacokinetics of KBGY constituents in rats after single oral administration of KBGY; format: in vivo, rat
Procedure: KBGY prepared in water was administered orally to 16 h fasted rats at a dose of 2 g/10 mL/kg (n = 3). […] Plasma was obtained by centrifugation at 1700× g for 15 min at 4 °C and stored at −80 °C until analysis.
For quantification of the dicarboxylic acid, 50 µL of standard solution, 100 µL of acetic acid (2%, v/v), and 650 µL of ethyl acetate were added to 200 µL of plasma samples, followed by mixing and centrifugation (7000× g, 5 min). The supernatants were collected and dried with a centrifugal evaporator and concentration system (CC-105; TOMY SEIKO Co., Tokyo, Japan). The residue was dissolved with 100 µL acetonitrile and 50 µL BF3/butanol solution; the dissolved solution was incubated for 1 h at 60 °C. The reaction was terminated by the addition of 50 µL of water and hexane, 150 µL of a saturated solution of sodium chloride, and 400 µL of hexane. The solution was vortexed for 2 min, and the supernatant was obtained by centrifugation (7000× g, 5 min). Liquid–liquid extraction was repeated twice. The corrected supernatant was dried with the centrifugal evaporator and concentration system. The dried residue was dissolved in 100 µL of acetonitrile containing 1 µg/mL of o-terphenyl (Tokyo Chemical Ind. Co.) as an internal standard (IS). Five microliters of the solution was then injected into the GC/MS system.
For quantification of volatile organic compounds (cinnamaldehyde, methyl cinnamate, 2-methoxycinnamaldehyde, mandelonitrile, salicylaldehyde, eugenol, cinnamyl alcohol, and 3-phenylpropyl acetate), 25 µL of standard solution, 25 µL of 2 µg/mL of 1,4-dibromobenzene (Tokyo Chemical Ind. Co.) as IS, and 500 µL of acetonitrile were added to 200 µL of plasma samples, followed by mixing and centrifugation (7000× g, 5 min). Five microliters of the supernatant was then injected into the GC/MS system.
For quantification of other compounds, 25 µL of standard solution, 25 µL of 2 ng/mL of atropine sulfate monohydrate (Wako Pure Chemical Ind.) or niflumic acid (Sigma-Aldrich) as IS, and 750 µL of methanol were added to 200 µL of plasma samples, followed by mixing and centrifugation (7000× g, 5 min). The supernatant was obtained and dried with the centrifugal evaporator and concentration system after 150 µL of propylene glycol (1%, v/v) was added to the supernatant. The dried residue was then dissolved in 60 μL of the HPLC mobile phase for each analytical method, and a 10 or 20 μL portion was injected into the LC/MS/MS system.
Plasma pharmacokinetic data were analyzed by noncompartmental modeling using Phoenix WinNonlin (version 6.3, Certara L.P., St. Louis, MO, USA) to determine various pharmacokinetic constants, including the maximum concentration (Cmax), time to maximum concentration (tmax), apparent elimination half-life (t1/2), and area under the plasma concentration-time curve from zero to last observation time (AUC0–last). The t1/2 was divided by loge^2/ke, where ke was the terminal elimination (at least three data points on the descending linear limb) rate constant.

[2] = Lipid hydroperoxide (LPO) generation assay (linoleic acid, Fenton reaction); format: biochemical
Procedure: Antioxidant assays using linoleic acid with a purity of 98.0% (Wako Pure Chemical Ind.) were performed using a described protocol with modifications. Briefly, 20 μL of 1% linoleic acid in methanol, 20 μL of 20 mmol/L ferrous chloride in water, 20 μL of test sample in DMSO, and 150 μL of a mixed solution (1:1) of methanol and 20 mmol/L phosphate buffer (pH 7.0) were added to 96-well polypropylene plates. After incubation at room temperature in the dark for 1 h, 10 μL of the reaction products were transferred to 200 μL of a methanol solution containing 39 mmol/L ammonium thiocyanate, 0.2 mmol/L ferrous chloride, and 0.01 mol/L hydrochloride. After incubation for 15 min, absorbance at 500 nm was measured using a microplate reader (Multiskan GO, Thermo Fisher Scientific Inc., Waltham, MA, USA). The concentration of lipid hydroperoxide (LPO) products was calculated conveniently using standard curves of serially-diluted linolein hydroperoxides (Cayman Chemical). The percentage of control was calculated using the following formula; (A − B)/(C − B) × 100, with A = test sample, B = linoleic acid alone, and C = vehicle control. Ascorbic acid was used as a reference agent.

[3] = ROS scavenging assay (hydrogen peroxide-dependent oxidation); format: biochemical; settings: for Antioxidant Activity (% of Control) ROS Scavenge: C.I. = complete inhibition
Procedure: Hydrogen peroxide-dependent oxidation tests were performed using Oxiselect™ In Vitro ROS/RNS Assay kits (Cellbiolab Inc., San Diego, CA, USA) according to the manufacturer’s protocol. Briefly, a test sample was mixed with hydrogen peroxide (final concentration: 2.5 μmol/L) and incubated for 5 min. A fluorescent reaction was started by the addition of a fluorescent probe (dichrolodihydrofluorescin-DiOxyQ) at room temperature. After incubation for 15 min, relative fluorescent units (RFUs) were measured at […] using a fluorescent plate reader (Infinite M200; Tecan Trading AG, Männedorf, Switzerland). The percentage of control was calculated using the following formula; (A − B)/(C − B) × 100, with A = test sample, B = fluorescent probe alone, and C = vehicle control. (+)-Ascorbic acid was used as a reference agent.

[4] = 10 μmol/L, more than 100% = no activity

Structure (SMILES) | Tmax ([1]; rat, in vivo, po, 2 g/kg) [h] | AUC0–last ([1]; rat, in vivo, po, 2 g/kg) [ng·h/mL] | IC50 ([3]; concentration-dependency, Figure 4) [nM] | AUC(0-t) ([1]; rat, in vivo, po, 2 g/kg) [ng·h/mL] | Cmax ([1]; rat, in vivo, po, 2 g/kg) | half-life ([1]; rat, in vivo, po, 2 g/kg) [h] | Antioxidant Activity (% of Control) LPO Generation [2, 4] | Antioxidant Activity (% of Control) ROS Scavenge [3, 4] | Antioxidant Activity (% of Control) LPO Generation ([2]; 1 μmol/L) | Antioxidant Activity (% of Control) ROS Scavenge ([3]; 1 μmol/L) | anti-ROS activity ([3]; 10 μmol/L) | AUC(0-t) ([1]; rat plasma, single oral KBGY 2 g/kg, read-out: AUC0–last) [ng·h/mL] | Cmax ([1]; rat plasma, single oral KBGY 2 g/kg, read-out: Cmax) | half-life ([1]; rat plasma, single oral KBGY 2 g/kg, read-out: t1/2 (converted)) [h] | Tmax ([1]; rat plasma, single oral KBGY 2 g/kg, read-out: tmax) [h] | Tmax ([1]; rat plasma, single oral KBGY 2 g/kg) [h]
O=C/C=C/c1ccccc1 [Cinnamaldehyde] | 1 |  |  | 51.6 | 11.5 ng/mL and 87 nM | 5.21 | 109.8 ± 3.9 % of Control | 103.8 ± 1.1 % of Control |  |  |  |  |  |  |  | 
O=C(O)CCCCC(=O)O [Adipic acid] | 6 |  |  | 17.1 | 14.4 ng/mL and 99 nM |  | 103.6 ± 2.9 % of Control | 97.0 ± 0.9 % of Control |  |  |  |  |  |  |  | 
C=C(CC[C@@H](C(=O)O)[C@H]1[C@H](O)C[C@@]2(C)C3=CC[C@H]4C(C)(C)[C@@H](O)CC[C@]4(C)C3=CC[C@]12C)C(C)C [Dehydrotumulosic acid] |  |  |  |  |  |  | 97.4 ± 3.1 % of Control | 106.0 ± 0.4 % of Control |  |  |  | 39.5 | 15.5 ng/mL and 32 nM | 3.81 | 0.5 | 
C[C@@]12C[C@@]3(O)O[C@@H](O1)[C@]1(COC(=O)c4ccccc4)[C@H]3C[C@@]12O[C@@H]1O[C@H](CO)[C@@H](O)[C@H](O)[C@H]1O [Paeoniflorin] |  |  |  | 299 | 80.2 ng/mL and 167 nM | 2.72 | 92.7 ± 0.9 % of Control | 100.2 ± 1.4 % of Control |  |  |  |  |  |  |  | 0.5

More lines, main results first:

Tmax ([1]; rat, in vivo, po, 2 g/kg) [h] | AUC0–last ([1]; rat, in vivo, po, 2 g/kg) [ng·h/mL] | IC50 ([3]; concentration-dependency, Figure 4) [nM] | Structure (SMILES) | AUC(0-t) ([1]; rat, in vivo, po, 2 g/kg) [ng·h/mL] | Cmax ([1]; rat, in vivo, po, 2 g/kg) | half-life ([1]; rat, in vivo, po, 2 g/kg) [h] | Antioxidant Activity (% of Control) LPO Generation [2, 4] | Antioxidant Activity (% of Control) ROS Scavenge [3, 4] | Antioxidant Activity (% of Control) LPO Generation ([2]; 1 μmol/L) | Antioxidant Activity (% of Control) ROS Scavenge ([3]; 1 μmol/L) | anti-ROS activity ([3]; 10 μmol/L) | AUC(0-t) ([1]; rat plasma, single oral KBGY 2 g/kg, read-out: AUC0–last) [ng·h/mL] | Cmax ([1]; rat plasma, single oral KBGY 2 g/kg, read-out: Cmax) | half-life ([1]; rat plasma, single oral KBGY 2 g/kg, read-out: t1/2 (converted)) [h] | Tmax ([1]; rat plasma, single oral KBGY 2 g/kg, read-out: tmax) [h] | Tmax ([1]; rat plasma, single oral KBGY 2 g/kg) [h]
0.5 |  |  | OC[C@H](Cc1cccc(O)c1)[C@H](CO)Cc1cccc(O)c1 [Enterodiol] | 2.91 | 1.03 ng/mL and 3 nM | 27.3 | 84.9 ± 3.1 % of Control | C.I. | 95.2 ± 4.4 % of Control | 67.6 ± 2.4 % of Control | strong anti-ROS activity |  |  |  |  | 
2 | 65.1 | 621 | Oc1cc(O)c2c(c1)O[C@H](c1ccc(O)c(O)c1)[C@@H](O)C2 [(+)-Catechin] |  |  |  | 95.4 ± 3.9 % of Control | 7.3 ± 1.1 % of Control |  |  | strong anti-ROS activity |  |  |  |  | 
